Read-outs that look alike come from different tables or passages of the source.
Tests used:
[1] = tested on: pentylenetetrazol (Metrazol) seizure in mice; experiment: Subcutaneous pentylenetetrazol (Metrazol) seizure threshold test (MET) in the mouse; assay type: in vivo; conditions: 1 h, read-out: ED50 - MET
[2] = tested on: maximum electroshock seizure in mice; experiment: Maximum electroshock seizure test (MES) in the mouse; assay type: in vivo, mouse (albino race); conditions: read-out: ED50 - MES
in vivo = conditions: mouse, in vivo
From the text: (§1) As to MET, it is known that pentylene-tetrazol (metrazol) administered subcutaneously to mice in a loose fold of skin on the back of the neck, produces seizures. […] Failure to observe even a threshold seizure is defined as protection. In the same table the LD50 values (lethal dose 50), evaluated in the mouse both I.p. and per os, are given.

mouse = experiment: in vivo; conditions: i.p.
From the text: as §1

[3] = ip, mouse, i.p., electroshock 60 Hz, 0.2 sec, 25 mA, 30 or 60 minutes after administration
[4] = po, mouse, os, electroshock 60 Hz, 0.2 sec, 25 mA, 30 or 60 minutes after administration

| Structure (SMILES) | ED50 ([1]; Mus musculus, ip) | ED50 ([1]; Mus musculus, po) | ED50 [2, 3] | ED50 [2, 4] | ED50 ([2]; Mus musculus, ip) | ED50 ([2]; Mus musculus, po) | LD50 (in vivo; po) | ED50 ([1]; ip, mouse, i.p., pentylenetetrazol 130 mg/Kg s.c. 30 minutes after administration, observed 60 minutes) | ED50 ([1]; po, mouse, os, pentylenetetrazol 130 mg/Kg s.c. 60 minutes after administration, observed 60 minutes) | LD50 (in vivo; ip) | LD50 (mouse) |
| --- | --- | --- | --- | --- | --- | --- | --- | --- | --- | --- | --- |
| Cc1c(C)c(C(O)Cn2ccnc2)c(C)c(C)c1Cl (centres unmarked) [Compound 1515, 3-[1'-hydroxy-2'-(N-imidazolyl)-ethyl]-6-chloro-durene] | 150 mg/kg | 75 mg/kg | 300 mg/kg | 150 mg/kg | – | – | – | – | – | – | – |
| CC(C)(C(=O)c1ccc(-c2ccccc2)cc1)n1ccnc1 [Compound 1488, 4-[2"-methyl-2"-(N-imidazolyl)-propionyl]-biphenyl] | 25 mg/kg | 37 mg/kg | – | – | 30 mg/kg | 34 mg/kg | 1.87 mg/kg | – | – | – | – |
| Cc1c(C)c(C)c(C(O)Cn2ccnc2)c(C)c1C (centres unmarked) [Compound 1516, 3-[1'-hydroxy-2'-(N-imidazolyl)-ethyl]-6-methyl-durene] | – | – | 46 mg/kg | 57 mg/kg | – | – | 1800 mg/kg | 13 mg/kg | 35 mg/kg | 655 mg/kg | – |
| OC(Cn1ccnc1)c1ccc(CCc2ccccc2)cc1 (centres unmarked) [15/1533, 4-[1"-hydroxy-2"-(N-imidazolyl)-ethyl]-bibenzyl] | 9 mg/kg | 10 mg/kg | 10 mg/kg | 12 mg/kg | – | – | – | – | – | – | – |
| O=C(OC(Cn1ccnc1)c1ccc(-c2ccccc2)cc1)c1ccccc1 (centres unmarked) [Compound 1575, 4-[1"-benzoyloxy-2"-(N-imidazolyl)-ethyl]-biphenyl] | 27 mg/kg | 62 mg/kg | 66 mg/kg | 135 mg/kg | – | – | 1300 mg/kg | – | – | – | – |
| Cc1c(C)c(C)c(C(=O)Cn2ccnc2)c(C)c1C [Compound 1518, 3-(N-imidazolyl-acetyl)-6-methyl-durene] | 23 mg/kg | 50 mg/kg | 13 mg/kg | 45 mg/kg | – | – | 1800 mg/kg | – | – | – | – |
| O=C(Cn1ccnc1)c1ccc(C2CCCCC2)cc1 [15/1803] | 18 mg/kg | 32 mg/kg | – | – | 66 mg/kg | 92 mg/kg | – | – | – | – | – |
| Cc1c(C)c([N+](=O)[O-])c(C)c(C)c1C(=O)Cn1ccnc1 [Compound 1429, 3-(N-imidazolyl-acetyl)-6-nitro-durene] | 100 mg/kg | 52 mg/kg | 75 mg/kg | 54 mg/kg | – | – | – | – | – | – | – |
| CC(C)CCSc1ccc(C(O)Cn2ccnc2)cc1 (centres unmarked) [Compound 1455] | 19 mg/kg | 22 mg/kg | 15 mg/kg | 31 mg/kg | – | – | – | – | – | 420 mg/kg | – |
| OC(Cn1ccnc1)c1ccc(-c2ccccc2)cc1 (centres unmarked) [Compound 1342, 4-[1"-hydroxy-2"-(N-imidazolyl)-ethyl]-biphenyl] | 25 mg/kg | 20 mg/kg | – | – | 25 mg/kg | 25 mg/kg | – | – | – | 1.15 mg/kg | – |
| O=C(CCn1ccnc1)c1ccc(-c2ccccc2)cc1 [Compound 1490, 4-[3"-(N-imidazolyl)-propionyl]-biphenyl] | 15 mg/kg | 30 mg/kg | – | – | 60 mg/kg | 36 mg/kg | – | – | – | – | 360 mg/kg |
| C(=Cn1ccnc1)c1ccc(-c2ccccc2)cc1 [Compound 1598, 4-(N-imidazolyl-vinylene)-biphenyl] | 69 mg/kg | 80 mg/kg | – | – | 185 mg/kg | 145 mg/kg | – | – | – | – | – |

Source: US4275071A, “Imidazole derivatives” (Recordati S.A., priority 1978, dated 1981)
